These are literature values, as cited in US10973875B2, “Medical agents and uses thereof” (LOKON PHARMA AB, priority 2014, dated 2021).

For the data set the following is noted: patients treated with gemcitabine.

On to `Nc1ccn([C@@H]2O[C@H](CO)[C@@H](O)C2(F)F)c(=O)n1` [gemcitabine], for which the “levels of TGF, Tregs and MDSCs” value was “significantly lower levels”.
